Data on four molecules can be found in patent US10479819B2 (priority 2014, dated 2019).

Starred links: 1 amine or outer side, 2 acyl side, 3 side chain; linkers in the order of their positions; H or OH if unused. Non-standard residues stand in square brackets, D forms with d. Residues, ends and D or L forms follow the SMILES beside them. Groups on a side chain read outwards from the residue. *: point of attachment. C18 diacid = O=C(O)CCCCCCCCCCCCCCCCC(=O)*; γGlu = O=C(O)[C@H](CCC(=O)[*:2])N[*:1]; PEG2 = NCCOCCOCCC(=O)O

For orientation: EC50 means the concentration needed to bring the measured effect to its halfway point. By Tmax is commonly meant the time from dosing to the highest level. The half-life is the time needed for the level to fall by half in the phase considered. Read a high half-life as slow loss.

In one data set the target is T1, human GCGR (Homo sapiens, UniProt P47871).
T1 construct: expressed in transfected cells
T1 sequence (P47871 26-477): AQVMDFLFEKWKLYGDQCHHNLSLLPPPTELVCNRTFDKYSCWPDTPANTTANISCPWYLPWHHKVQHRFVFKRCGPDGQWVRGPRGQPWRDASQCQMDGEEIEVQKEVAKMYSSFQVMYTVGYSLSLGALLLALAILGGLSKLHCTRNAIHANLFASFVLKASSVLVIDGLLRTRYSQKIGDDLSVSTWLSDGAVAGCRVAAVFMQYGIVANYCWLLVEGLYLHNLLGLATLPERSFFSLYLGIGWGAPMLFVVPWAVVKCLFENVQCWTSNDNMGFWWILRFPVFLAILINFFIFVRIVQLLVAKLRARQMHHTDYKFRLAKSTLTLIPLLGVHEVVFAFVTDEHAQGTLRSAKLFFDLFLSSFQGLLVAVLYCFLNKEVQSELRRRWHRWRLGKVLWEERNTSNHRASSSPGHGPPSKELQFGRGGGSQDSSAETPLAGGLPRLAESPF
Description: In vitro activity on GCGR, CRE-luciferase HEK-293 cells. The data set is classed as cell-based. Conditions: read-out: GCGR (EC50). As for the experimental part:
5000 of HEK-293 cells, which are used in CRE-luciferase system and express human GCGR or GLP-1R stably, were inoculated into 384 well plates according to […] DMEM/10% FBS media/well. […] After incubation, […] of luciferase reagent was added directly to each plate and mixed gently for 2 minutes. The plates were placed into an Elmer Perkin plate reader for reading. Concentration curve of the compound was made by drawing software Prism 5, and the EC50 value was calculated.

A further data set concerns the target T2, human GLP-1R (Homo sapiens, UniProt P43220).
T2 construct: expressed in transfected cells
Description: In vitro activity on GLP-1R, CRE-luciferase HEK-293 cells. The format is cell-based. The following applies: for GLP-1R/GCGR: ratio of EC50 GLP-1R to EC50 GCGR. Summed up: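 HEK-293 cells stably expressing human GLP-1R or human GCGR with CRE-luciferase reporter, 5000 cells/well in DMEM/10% FBS, exposed to compound. Luminescence read after luciferase reagent; EC50 taken from concentration-response curves.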

Data set [1] is described as follows: Pharmacokinetic analysis after IV or SC administration in male CD1 mice. The following applies: for Tmax / half-life: iv. As for the experimental part:
Pharmacokinetic parameters of the drugs were calculated by methods of model dependence (for data obtained from IV) and model independence (data obtained from SC).

The next data set relates to male C57B1/6J mice. Description: Oral glucose tolerance test in male C57B1/6J mice. The format is in vivo. The following applies: 250 μg/kg; for AUC of blood glucose in all four OGTT curve periods (0-480 min) compared with carrier (PBS): P<0.05; for effect on oral glucose tolerance: male C57B1/6J mice. As for the experimental part:
12-16 week-old male C57B1/6J mice (Nanjing University model animal research center) were randomly divided into groups 8 in each group, according to similar blood glucose (assessed by the blood samples obtained from the tail tip). After fasting (for 6 hours), the animals were administrated, and about 4 hours later, initial blood samples (fasting blood glucose level) were taken. Subsequently, the animals were administrated with an oral dose of glucose, and then put back into their cages (t=0). Blood glucose was measured at t=15 minutes, t=30 minutes, t=60 minutes, t=90 minutes and t=120 minutes. And then the animals were administrated with an oral dose of glucose again, and blood glucose was tracked until 8 hours.

Another data set relates to DIO mice. Description: Body weight reduction in DIO (obese) mice. The format is in vivo. Conditions: 250 μg/kg SC daily, day 11 to day 30, DIO mice; for body weight compared with normal saline group: P<0.05. The source says:
Forty 25-week-old DIO mice (Nanjing University model animal research center) were randomly divided into five groups (compound 4, 5, 6, 7, and normal saline group), 8 in each group, having no difference in the basis weight of each group.

T2 sequence (P43220 24-463): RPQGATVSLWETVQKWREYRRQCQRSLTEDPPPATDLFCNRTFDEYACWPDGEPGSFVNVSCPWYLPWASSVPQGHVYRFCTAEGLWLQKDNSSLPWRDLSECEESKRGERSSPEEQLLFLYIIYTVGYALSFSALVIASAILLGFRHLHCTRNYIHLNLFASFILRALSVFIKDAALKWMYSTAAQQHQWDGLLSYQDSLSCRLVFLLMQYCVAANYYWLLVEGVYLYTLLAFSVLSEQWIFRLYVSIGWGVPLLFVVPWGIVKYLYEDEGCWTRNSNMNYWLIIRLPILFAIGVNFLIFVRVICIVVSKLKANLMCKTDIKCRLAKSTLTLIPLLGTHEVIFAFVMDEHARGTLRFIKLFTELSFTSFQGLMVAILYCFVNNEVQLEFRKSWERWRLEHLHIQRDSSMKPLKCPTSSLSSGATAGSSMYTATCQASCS

Take `CSCC[C@H](NC(=O)[C@H](CC(C)C)NC(=O)[C@H](Cc1c[nH]c2ccccc12)NC(=O)[C@H](CCC(N)=O)NC(=O)[C@@H](NC(=O)[C@H](Cc1ccccc1)NC(=O)[C@H](CC(=O)O)NC(=O)[C@H](CCC(N)=O)NC(=O)[C@H](C)NC(=O)[C@H](CCCNC(=N)N)NC(=O)[C@H](CCCNC(=N)N)NC(=O)[C@H](CCCCNC(=O)CCOCCOCCNC(=O)CCOCCOCCNC(=O)CCCCCCCCCCCCCCCCC(=O)O)NC(=O)[C@H](CC(=O)O)NC(=O)[C@H](CC(C)C)NC(=O)[C@H](Cc1ccc(O)cc1)NC(=O)[C@H](CCCCN)NC(=O)[C@H](CO)NC(=O)[C@H](Cc1ccc(O)cc1)NC(=O)[C@H](CC(=O)O)NC(=O)[C@H](CO)NC(=O)[C@@H](NC(=O)[C@H](Cc1ccccc1)NC(=O)[C@@H](NC(=O)CNC(=O)[C@H](CCC(N)=O)NC(=O)[C@@H](CO)NC(=O)[C@@H](N)Cc1c[nH]cn1)[C@@H](C)O)[C@@H](C)O)C(C)C)C(=O)N[C@@H](CC(N)=O)C(=O)N[C@H](C(=O)NCC(=O)NCC(=O)N1CCC[C@H]1C(=O)N[C@@H](CO)C(=O)N[C@@H](CO)C(=O)NCC(=O)N[C@@H](C)C(=O)N1CCC[C@H]1C(=O)N1CCC[C@H]1C(=O)N1CCC[C@H]1C(=O)N[C@@H](CO)C(N)=O)[C@@H](C)O` [Compound 9]: the EC50 on human GCGR is 0.18 nM. Also, the GLP-1R/GCGR at human GLP-1R worked out at 2.9.

As for `CC[C@H](C)[C@H](NC(=O)[C@H](Cc1ccccc1)NC(=O)[C@H](CCC(=O)O)NC(=O)[C@H](CCCCNC(=O)CCOCCOCCNC(=O)CCOCCOCCNC(=O)CC[C@H](NC(=O)CCCCCCCCCCCCCCCCC(=O)O)C(=O)O)NC(=O)[C@H](C)NC(=O)[C@H](C)NC(=O)[C@H](CCCCN)NC(=O)[C@H](CCC(=O)O)NC(=O)[C@H](CC(=O)O)NC(=O)[C@H](CC(C)C)NC(=O)[C@H](Cc1ccc(O)cc1)NC(=O)[C@H](CCCCN)NC(=O)[C@H](CO)NC(=O)[C@H](Cc1ccc(O)cc1)NC(=O)[C@H](CC(=O)O)NC(=O)[C@H](CO)NC(=O)[C@@H](NC(=O)[C@H](Cc1ccccc1)NC(=O)[C@@H](NC(=O)CNC(=O)[C@H](CCC(N)=O)NC(=O)[C@@H](CO)NC(=O)[C@@H](N)Cc1c[nH]cn1)[C@@H](C)O)[C@@H](C)O)C(=O)N[C@@H](CCC(=O)O)C(=O)N[C@@H](Cc1c[nH]c2ccccc12)C(=O)N[C@@H](CC(C)C)C(=O)N[C@@H](CC(C)C)C(=O)N[C@@H](CC(N)=O)C(=O)NCC(=O)NCC(=O)N1CCC[C@H]1C(=O)N[C@@H](CO)C(=O)N[C@@H](CO)C(=O)NCC(=O)N[C@@H](C)C(=O)N1CCC[C@H]1C(=O)N1CCC[C@H]1C(=O)N1CCC[C@H]1C(=O)N[C@@H](CO)C(N)=O` [Compound 4] (H-H[dS]QGTFTSDYSKYLDEKAAK([PEG2-PEG2-γGlu-C18 diacid])EFIEWLLNGGPSSGAPPPS-NH2), the clinical adverse effect entry in data set [1] (IV or SC route, male CD1 mice) is listed as “no clinical adverse effect”. In data set [1] (mouse, in vivo), the time to peak (Tmax) was approximately 12 h and the half-life lay in the range of 4 to 6 h. In addition, in the data set with male C57B1/6J mice, the “AUC of blood glucose in all four OGTT curve periods (0-480 min) compared with carrier (PBS)” value is “significantly decreased” and the “effect on oral glucose tolerance” value is “significantly reduced the oral glucose tolerance”. In addition, on human GLP-1R, the EC50 was found to be 0.13 nM and the GLP-1R/GCGR is recorded as 0.3. In the data set with DIO mice, the weight loss result is “about 20%” and the “body weight compared with normal saline group” value is on record as “significantly lower”.

Regarding `CSCC[C@H](NC(=O)[C@H](CC(C)C)NC(=O)[C@H](Cc1c[nH]c2ccccc12)NC(=O)[C@H](CCC(N)=O)NC(=O)[C@@H](NC(=O)[C@H](Cc1ccccc1)NC(=O)[C@H](CC(=O)O)NC(=O)[C@H](CCC(N)=O)NC(=O)[C@H](C)NC(=O)[C@H](CCCNC(=N)N)NC(=O)[C@H](CCCNC(=N)N)NC(=O)C(C)(C)NC(=O)[C@H](CC(=O)O)NC(=O)[C@H](CC(C)C)NC(=O)[C@H](Cc1ccc(O)cc1)NC(=O)[C@H](CCCCN)NC(=O)[C@H](CO)NC(=O)[C@H](CCCCNC(=O)CCOCCOCCNC(=O)CCOCCOCCNC(=O)CCCCCCCCCCCCCCCCC(=O)O)NC(=O)[C@H](CC(=O)O)NC(=O)[C@H](CO)NC(=O)[C@@H](NC(=O)[C@H](Cc1ccccc1)NC(=O)[C@@H](NC(=O)CNC(=O)[C@H](CCC(N)=O)NC(=O)[C@@H](CO)NC(=O)[C@@H](N)Cc1c[nH]cn1)[C@@H](C)O)[C@@H](C)O)C(C)C)C(=O)N[C@@H](CC(N)=O)C(=O)N[C@H](C(=O)NCC(=O)NCC(=O)N1CCC[C@H]1C(=O)N[C@@H](CO)C(=O)N[C@@H](CO)C(=O)NCC(=O)N[C@@H](C)C(=O)N1CCC[C@H]1C(=O)N1CCC[C@H]1C(=O)N1CCC[C@H]1C(=O)N[C@@H](CO)C(N)=O)[C@@H](C)O` [Compound 6], in data set [1] (mouse, in vivo), the clinical adverse effect result is “no clinical adverse effect”, the Tmax was approximately 12 h and the half-life was in the range of 4 to 6 h. Also, in data set [1] (mouse, in vivo, sc), the peak time entry is given as “more than 12 hours”. Besides, in the data set with male C57B1/6J mice, the “AUC of blood glucose in all four OGTT curve periods (0-480 min) compared with carrier (PBS)” value is on record as “significantly decreased” and the “effect on oral glucose tolerance” value was “significantly reduced the oral glucose tolerance”. Moreover, at human GLP-1R, the GLP-1R/GCGR is recorded as 0.3. In addition, in the data set with DIO mice, the weight loss result was “about 20%” and the “body weight compared with normal saline group” value is “significantly lower”.

With `CCCCCCCCCCCCCCCC(=O)N[C@@H](CCC(=O)NCCOCCOCCC(=O)NCCOCCOCCC(=O)NCCCC[C@H](NC(=O)[C@H](CO)NC(=O)[C@H](Cc1ccc(O)cc1)NC(=O)[C@H](CC(=O)O)NC(=O)[C@H](CO)NC(=O)[C@@H](NC(=O)[C@H](Cc1ccccc1)NC(=O)[C@@H](NC(=O)CNC(=O)[C@H](CCC(N)=O)NC(=O)[C@@H](CO)NC(=O)[C@@H](N)Cc1c[nH]cn1)[C@@H](C)O)[C@@H](C)O)C(=O)N[C@@H](CCCCN)C(=O)N[C@@H](CC(C)C)C(=O)N[C@@H](CC(=O)O)C(=O)NC(C)(C)C(=O)N[C@@H](CCCNC(=N)N)C(=O)N[C@@H](CCCNC(=N)N)C(=O)N[C@@H](C)C(=O)N[C@@H](CCC(N)=O)C(=O)N[C@@H](CC(=O)O)C(=O)N[C@@H](Cc1ccccc1)C(=O)N[C@H](C(=O)N[C@@H](CCC(N)=O)C(=O)N[C@@H](Cc1c[nH]c2ccccc12)C(=O)N[C@@H](CC(C)C)C(=O)N[C@@H](CCSC)C(=O)N[C@@H](CC(N)=O)C(=O)N[C@H](C(=O)NCC(=O)NCC(=O)N1CCC[C@H]1C(=O)N[C@@H](CO)C(=O)N[C@@H](CO)C(=O)NCC(=O)N[C@@H](C)C(=O)N1CCC[C@H]1C(=O)N1CCC[C@H]1C(=O)N1CCC[C@H]1C(=O)N[C@@H](CO)C(N)=O)[C@@H](C)O)C(C)C)C(=O)O` [Compound 17], the EC50 on human GCGR was 0.58 nM. In addition, at human GLP-1R, the GLP-1R/GCGR worked out at 1.2.
